{"source": "ChEMBL document CHEMBL2203004", "about": "“New diterpene furanoids from the Antarctic lichen Huea sp” (Bioorg Med Chem Lett, 2012)", "key": {"[1]": {"target": "T1, Tyrosine-protein phosphatase non-receptor type 1 (Homo sapiens, UniProt P18031)", "T1 sequence (P18031 whole entry)": "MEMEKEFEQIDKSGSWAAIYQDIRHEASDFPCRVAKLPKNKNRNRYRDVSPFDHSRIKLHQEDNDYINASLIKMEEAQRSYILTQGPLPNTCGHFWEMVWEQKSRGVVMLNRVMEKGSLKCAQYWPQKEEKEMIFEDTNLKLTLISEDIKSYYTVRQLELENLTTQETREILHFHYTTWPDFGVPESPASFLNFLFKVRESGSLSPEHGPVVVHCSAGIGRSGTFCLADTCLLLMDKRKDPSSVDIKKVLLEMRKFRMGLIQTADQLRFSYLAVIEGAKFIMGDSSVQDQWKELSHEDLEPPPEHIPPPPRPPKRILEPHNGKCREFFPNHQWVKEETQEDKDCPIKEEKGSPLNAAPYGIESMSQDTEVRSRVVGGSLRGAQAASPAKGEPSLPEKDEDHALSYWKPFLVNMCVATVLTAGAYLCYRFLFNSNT", "test": "(§1) Inhibition of human recombinant PTP1B using p-nitrophenyl phosphate as substrate after 30 mins by spectrophotometric analysis"}, "[2]": {"target": "T2, Tyrosine-protein phosphatase non-receptor type 1 (Homo sapiens) (UniProt P18031)", "T2 sequence (whole entry)": "T1 sequence (P18031 whole entry)", "test": "as §1"}, "[3]": {"target": "T2, Tyrosine-protein phosphatase non-receptor type 1 (Homo sapiens)", "test": "Noncompetitive inhibition of human recombinant PTP1B using p-nitrophenyl phosphate as substrate at 5.57 to 14.87 uM after 30 mins by Lineweaver-Burk plot analysis"}}, "note": "Activity calls are given as the source filed them. The rule behind the calls is not given here."}
{"compound": "C=CC(C)(O)C/C=C/[C@@]1(C)CC[C@@H](C(C)(O)CC(=O)C=C(C)C)O1", "note": "(relative stereo)", "values": [{"measurement": "IC50", "setting": "[1]", "result": 13.9, "unit": "µM"}, {"measurement": "inhibition", "setting": "[2]", "result": "Dose-dependent effect"}, {"measurement": "inhibition", "setting": "[3]", "result": "Active"}]}
